Values after ≈ are worked out from the molar mass of the structure shown. Read-outs that look alike come from different tables or passages of the source.
Experiments:
sarcoma 180 cells [1] = assay: Antitumor activity, sarcoma 180, drug given after inoculation (Test Examples 2, 3 and 8); assay type: in vivo, ICR mice; settings: for Number of surviving animals/Number of animals tested: 47th day, conditions of Test Example 2; for life span prolonging ratio (T/C): ICR mice, 0.33 mg/mouse at hour 1, day 1 and day 2 after i.p. sarcoma 180 inoculation
From the text: ICR mice (5 animals per group) were intraperitoneally inoculated with 1×10^5 sarcoma 180 cells per mouse. […] The life span prolonging ratio as compared with the control (no drug treatment) group was 206. […] The life span prolonging ratio was 257. […] The value of the number of surviving animals represents the number of animals which survived on the 47th day.

sarcoma 180 cells [2] = assay: Antitumor activity, sarcoma 180, drug given 4 days before inoculation (Test Examples 1 and 7); assay type: in vivo, ICR mice; settings: for Number of surviving animals/Number of animals tested: 47th day, conditions of Test Example 1; for life span prolonging ratio (T/C): ICR mice, 1 mg/mouse, 4 days before i.p. inoculation of 1×10^5 sarcoma 180 cells
Method: Four days later, 1×10^5 sarcoma 180 cells were inoculated intraperitoneally into each mouse. […] The compounds of Examples 1, 4 and 6 were tested under the same conditions as Test Example 1. The value of the number of surviving animals represents the number of animals which survived on the 47th day.

Pyricularia oryzae = assay: microbe, parasite or virus in culture; assay type: cell-based; settings: read-out: MIC, Pyricularia oryzae (rice blast)
Sclerotinia sclerotiorum = assay: Antifungal activity, serial dilution method; assay type: cell-based; settings: 1% glucose bouillon agar, read-out: MIC, Sclerotinia sclerotiorum (kidney bean stem rot)
Elsinoe fawcetti = assay: Antifungal activity, serial dilution method; assay type: cell-based; settings: 1% glucose bouillon agar; read-out: MIC, Elsinoe fawcetti (citrus scab)
Diaporthe citri = assay: Antifungal activity, serial dilution method; assay type: cell-based; settings: 1% glucose bouillon agar, read-out: MIC, Diaporthe citri (citrus melanose)
Botrytis cinerea = assay: Antifungal activity, serial dilution method; assay type: cell-based; settings: 1% glucose bouillon agar, read-out: MIC, Botrytis cinerea (gray mold)
Cercospora beticola = assay: Antifungal activity, serial dilution method; assay type: cell-based; settings: read-out: MIC, Cercospora beticola (sugar beat leaf spot)
Tetrahymena pyriformis W = assay: Microprotozoal growth inhibiting activity, liquid dilution method (Test Example 13); assay type: cell-based; settings: 28° C., 44-48 hours, pH 7.0
Method: The compounds given in Table 4 were tested for microprotozoal growth inhibiting activity (expressed in terms of MIC) in Tetrahymena pyriformis W by the liquid dilution method by cultivating said test microorganism in a test medium [20 g of Tryptose peptone (Difco), 1 g of yeast extract, 2 g of glucose, 1000 ml of distilled water, 10 ml of 1M phosphate buffer, pH 7.0] at 28° C. for 44-48 hours.

PAF = assay: Anti-PAF activity, inhibition of PAF-induced platelet aggregation (Test Example 14); assay type: cell-based; settings: Oryctolagus cuniculus, 3×10^-5 M, rabbit washed PRP, read-out: percentage inhibition of maximum aggregation due to PAF
Method: A blood sample was taken directly from a male rabbit using a syringe containing 3.15% citric acid (1 to 9 volumes of blood) as anticoagulant, and centrifuged at 1000 rpm and room temperature for 10 minutes to give platelet rich plasma (PRP). The PRP was further centrifuged at 1400 rpm for 15 minutes. The platelet pellet thus obtained was suspended in Ca^++ -free Tyrode (containing 0.25% of gelatin). A 250-μl portion of the thus-prepared washed PRP was stirred at 37° C. for 2 minutes, then 25 μl of 0.2-0.5 mM Ca^++ solution was added and the mixture was further stirred for 30 seconds. Thereafter, the compound of Example 8 was added to a concentration of 3×10^-5 M. Platelet aggregation was measured with an aggregation meter (Rigaku Denki). The activity of the compound of Example 8 as determined in terms of percentage inhibition based on the maximum light transmittance (maximum aggregation) due to PAF in the control PRP was 94%.

blood pressure = settings: rat, in vivo, iv
Method: Seven-week-old male Spraugue-Dawley rats (200-290 g) were anesthesized by intraperitoneal administration of 60 mg/kg of pentobarbital sodium and the left carotid artery (for blood pressure measurement) and left femoral vein (for intravenous drug administration) were cannulated.

[3] = Toxicity testing, LD50 (Test Example 11); settings: mouse, in vivo, ip; ICR mice, intraperitoneal, in physiological saline
Method: LD50 values were determined in ICR mice by intraperitoneally administering each test compound in the form of a solution in physiological saline.

P388 leukemia cells = assay: Antitumor activity, P388 leukemia (Test Example 5); assay type: in vivo; settings: CDF1 mice, 1 mg/mouse i.p. once per day for 14 days
Method: CDF1 mice (5 animals per group) were each intraperitoneally inoculated with 1×10^5 P388 leukemia cells. Separately, a solution of the compound of Example 7 in physiological saline was intraperitoneally administered to the mice in a dose of 1 mg/mouse once per day for 14 consecutive days starting from day 1 after tumor implantation. The life span prolonging ratio as compared with the control group was 140.

MM46 cells = assay: Antitumor activity, MM46 (Test Example 6); assay type: in vivo, C3H/He mice; settings: 5 animals per group; 0.25 mg/mouse i.p. 4 days before and 4 days after inoculation; controls all died within 21 days
Method: The compound of Example 7 was intraperitoneally administered to C3H/He mice (5 animals per group) in a dose of 0.25 mg/mouse for 4 consecutive days.
On the 5th day, 1×10^4 MM46 cells were intraperitoneally inoculated into each mouse, and the compound of Example 7 was again administered intraperitoneally to the mice in a dose of 0.25 mg/mouse for 4 days starting from day 1 after inoculation.

washed PRP (platelets) = assay: Action on platelets: platelet aggregation caused by test drug (Test Example 9); assay type: cell-based; settings: 3×10^-5 M, rabbit washed PRP, 37° C.
Method: A blood sample was taken from a male rabbit using a syringe containing 3.15% citric acid (1 to 9 volumes of blood) as anticoagulant, and centrifuged at 1000 rpm and room temperature for 10 minutes to give platelet rich plasma (PRP). The PRP was further centrifuged at 1400 rpm for 15 minutes. The platelet pellet thus obtained was suspended in Ca^++ -free Tyrode (containing 0.25% of gelatin). A 250 μl portion of the thus-prepared washed PRP was stirred at 37° C. for 2 minutes, then 25 μl of 0.2-0.5 mM Ca^++ solution was added and the mixture was further stirred for 30 seconds. Thereafter, the test drug was added in an amount sufficient to make a concentration of 3×10^-5M. Platelet aggregation was measured using an aggregation meter (Rigaku Denki).

Meth A sacoma cells = assay: Antitumor activity, Meth A sarcoma (Test Example 4); assay type: in vivo, Balb/C mice; settings: 0.5 mg/mouse once daily for 5 days at site of inoculation; tumors weighed day 15
Method: Balb/C mice (5 animals per group) were each subcutaneously inoculated with 1×10^5 Meth A sacoma cells. Separately, a solution of the compound of Example 7 in physiological saline was administered to the mice at the site of inoculation in a dose of 0.5 mg/mouse once daily for 5 consecutive days starting from day 1 after tumor cell inoculation. On day 15, the tumor tissues were excised and weighed. The inhibition ratio as compared with the control group was 83%.

platelets = settings: Hanahan et al., Biochem. Biophys. Res. Commun., 99, 183 (1981); cited from earlier work
[4] = Adverse effects (general statement)

| Structure (SMILES) | Number of surviving animals/Number of animals tested (sarcoma 180 cells [1]) | life span prolonging ratio (T/C) (sarcoma 180 cells [1]) | Number of surviving animals/Number of animals tested (sarcoma 180 cells [2]) | life span prolonging ratio (T/C) (sarcoma 180 cells [2]) | MIC (Pyricularia oryzae) [µg/mL] | MIC (Sclerotinia sclerotiorum) [µg/mL] | MIC (Botrytis cinerea) [µg/mL] | MIC (Tetrahymena pyriformis W) [µg/mL] | Hypotensive action [duration] (blood pressure) [s] | Hypotensive action ΔP (blood pressure) [mmHg] | LD50 [3] [mg/kg] | other results |
| --- | --- | --- | --- | --- | --- | --- | --- | --- | --- | --- | --- | --- |
| CCCCCCCCCCCCCCC(=O)COCC(COP(=O)([O-])OCC[N+](C)(C)C)OC (centres unmarked) [Example 4, 3-(2-Oxohexadecyloxy)-2-methoxypropyl 2-trimethylammonioethyl phosphate] | 0/5 | 230 | 0/5 | 224 | – | – | – | – | – | – | – | – |
| CCCCCCCCCCCCCCCCC(=O)COCC(COP(=O)([O-])OCC[N+](C)(C)C)OC (centres unmarked) [drawing 49] | – | – | – | – | 3.12 (≈ 5.8 µM) | 25 (≈ 46.5 µM) | 6.25 (≈ 11.6 µM) | – | – | – | – | MIC (Elsinoe fawcetti): 6.25 µg/mL (≈ 11.6 µM); MIC (Diaporthe citri): 6.25 µg/mL (≈ 11.6 µM); MIC (Cercospora beticola): 3.12 µg/mL (≈ 5.8 µM) |
| CCCCCCCCCCCCCCCCC(=O)COCC(COP(=O)([O-])OCC[N+](C)(C)C)OC (centres unmarked) [drawing 44] | – | – | – | – | – | – | – | 0.4 (≈ 0.744 µM) | – | – | – | – |
| CCCCCCCCCCCCCCCCC(=O)COCC(COP(=O)([O-])OCC[n+]1ccsc1)OC (centres unmarked) [Example 8, 3-(2-Oxooctadecyloxy)-2-methoxypropyl 2-thiazolioethyl phosphate] | – | 257 | – | – | – | – | – | – | < 30 | -3 | > 150 | inhibition at 30 µM (PAF): 94%; blood pressure decrease (in words) (blood pressure): no observable blood pressure decrease |
| CCCCCCCCCCCCCCCCC(=O)COCC(COP(=O)([O-])OCC[n+]1ccsc1)OC (centres unmarked) [drawing 45] | – | – | – | – | – | – | – | 1 to 2 (≈ 1.77 to 3.55 µM) | – | – | – | – |
| CCCCCCCCCCCCCCCCCCC(=O)COCC(COP(=O)([O-])OCC[N+](C)(C)C)OC (centres unmarked) [Example 6, 3-(2-Oxoeicosyloxy)-2-methoxypropyl 2-trimethylammonioethyl phosphate] | 0/5 | 338 | 1/5 | 236 | – | – | – | – | – | – | – | – |
| CCCCCCCCCCCCCCCCC(=O)COCC(COP(=O)([O-])OCC[N+](C)(C)C)OC (centres unmarked) [Example 7, 3-(2-Oxooctadecyloxy)-2-methoxypropyl 2-trimethylammonioethyl phosphate] | – | 206 | – | 180 | – | – | – | – | < 30 | -5 | > 150 | life span prolonging ratio as compared with the control group (P388 leukemia cells): 140; animals survived on day 46 (MM46 cells): 4 animals; platelet aggregation (in words) (washed PRP (platelets)): did not cause aggregation at all; platelet aggregation (in words) (washed PRP (platelets); listed as drawing 39): No aggregation; inhibition ratio (tumor weight) as compared with control group (Meth A sacoma cells): 83%; blood pressure decrease (in words) (blood pressure): no observable blood pressure decrease |
| CCCCCCCCCCCCCCCCC(=O)COCC(COP(=O)([O-])OCC[n+]1ccsc1)OC (centres unmarked) [drawing 51] | – | – | – | – | 3.12 (≈ 5.53 µM) | 25 (≈ 44.3 µM) | 100 (≈ 177 µM) | – | – | – | – | MIC (Elsinoe fawcetti): 12.5 µg/mL (≈ 22.2 µM); MIC (Diaporthe citri): 12.5 µg/mL (≈ 22.2 µM); MIC (Cercospora beticola; 1% glucose bouillon agar): 12.5 µg/mL (≈ 22.2 µM) |
| CCCCCCCCCCCCCCCCCCOCC(COP(=O)([O-])OCC[N+](C)(C)C)OC (centres unmarked) [compound (XIII), reference compound] | – | – | – | 170 | 6.25 (≈ 11.9 µM) | > 100 | 25 (≈ 47.7 µM) | 1 (≈ 1.91 µM) | 270 | -43 to -75 | 25 to 50 | platelet aggregating activity (in words) (platelets): platelet aggregating activity; adverse effects (in words) [4]: hypotensive activity and local irritation (necrosis) is also noted |
| CCCCCCCCCCCCCCCC(=O)COCC(COP(=O)([O-])OCC[N+](C)(C)C)OC (centres unmarked) [Example 1, 3-(2-Oxoheptadecyloxy)-2-methoxypropyl 2-trimethylammonioethyl phosphate] | 0/5 | 340 | 0/5 | 290 | – | – | – | – | – | – | – | – |
